From ChEMBL document CHEMBL4622910, “Design, synthesis and evaluation of pyrazolopyrimidinone derivatives as novel PDE9A inhibitors for treatment of Alzheimer's disease” (Bioorg Med Chem Lett, 2020)
In brackets after ≈: the same amount, converted by molar mass.

Key:
[1] = Metabolic stability in rat liver microsomes; format: ADME, Microsome
[2] = Half life in rat liver microsomes; format: ADME, Microsome
[3] = Hepatic clearance in rat liver microsomes; format: ADME, Microsome
[4] = Solubility of the compound in water; format: physicochemical
Homo sapiens [5] = species: Homo sapiens; assay: Selectivity for PDE1 (unknown origin) over PDE9 (unknown origin)
Homo sapiens [6] = species: Homo sapiens; assay: Selectivity for PDE5 (unknown origin) over PDE9 (unknown origin)

Compound: C[C@@H](Nc1nc2c(cnn2C2CCCC2)c(=O)[nH]1)C(=O)Nc1ccc2nccn2c1
- Stability [1]: 40.8%
- t1/2 [2]: 32.6 min
- CLH [3]: 11.8 mL/min/kg
- solubility [4]: 74 µg/mL (≈ 182 µM)

Compound: COc1ccc(NC(=O)[C@@H](C)Nc2nc3c(cnn3C3CCCC3)c(=O)[nH]2)cc1
- t1/2 [2]: 23.3 min
- CLH [3]: 65.8 mL/min/kg
- solubility [4]: 0.04 µg/mL (≈ 0.101 µM)

Compound: C[C@@H](Nc1nc2c(cnn2C2CCCC2)c(=O)[nH]1)C(=O)Nc1ccc2c(c1)CNC2=O
- solubility [4]: 0.1 µg/mL (≈ 0.237 µM)

Compound: C[C@@H](Nc1nc2c(cnn2C2CCCC2)c(=O)[nH]1)C(=O)Nc1ccc(C(F)(F)F)nc1
- solubility [4]: 5.1 µg/mL (≈ 11.7 µM)

Compound: C[C@@H](Nc1nc2c(cnn2C2CCCC2)c(=O)[nH]1)C(=O)Nc1ccc2c(c1)COC2
- solubility [4]: 0.03 µg/mL (≈ 0.0734 µM)

Compound: C[C@@H](Nc1nc2c(cnn2C2CCCC2)c(=O)[nH]1)C(=O)Nc1ccc(C(F)(F)F)cn1
- solubility [4]: 6.3 µg/mL (≈ 14.5 µM)

Compound: C[C@@H](Nc1nc2c(cnn2C2CCCC2)c(=O)[nH]1)C(=O)NC1=NCCS1
- solubility [4]: 0.03 µg/mL (≈ 0.0799 µM)

Compound: C[C@@H](Nc1nc2c(cnn2C2CCCC2)c(=O)[nH]1)C(=O)Nc1nccs1
- solubility [4]: 25 µg/mL (≈ 66.9 µM)

Compound: C[C@@H](Nc1nc2c(cnn2C2CCCC2)c(=O)[nH]1)C(=O)Nc1ccncc1
- solubility [4]: 20 µg/mL (≈ 54.4 µM)

Compound: C[C@@H](Nc1nc2c(cnn2C2CCCC2)c(=O)[nH]1)C(=O)Nc1ccc2c(c1)CCC2=O
- solubility [4]: 6 µg/mL (≈ 14.3 µM)

Compound: C[C@@H](Nc1nc2c(cnn2C2CCCC2)c(=O)[nH]1)C(=O)Nc1ccc2[nH]cnc2c1
- Stability [1]: 54.7%
- t1/2 [2]: 57 min
- CLH [3]: 9.07 mL/min/kg
- solubility [4]: 195 µg/mL (≈ 480 µM)

Compound: C[C@@H](Nc1nc2c(cnn2C2CCCC2)c(=O)[nH]1)C(=O)Nc1ccc(F)nc1
- Stability [1]: 41%
- t1/2 [2]: 32.8 min
- CLH [3]: 11.8 mL/min/kg
- solubility [4]: 52 µg/mL (≈ 135 µM)

Compound: C[C@@H](Nc1nc2c(cnn2C2CCCC2)c(=O)[nH]1)C(=O)Nc1ccc2[nH]ncc2c1
- Stability [1]: 47.8%
- t1/2 [2]: 43.4 min
- CLH [3]: 10 mL/min/kg
- solubility [4]: 103 µg/mL (≈ 253 µM)

Compound: C[C@@H](Nc1nc2c(cnn2C2CCCC2)c(=O)[nH]1)C(=O)Nc1cnc(Cl)nc1
- solubility [4]: 0.5 µg/mL (≈ 1.24 µM)

Compound: C[C@@H](Nc1nc2c(cnn2C2CCCC2)c(=O)[nH]1)C(=O)Nc1ccc2[nH]ccc2c1
- solubility [4]: 0.1 µg/mL (≈ 0.247 µM)

Compound: CC(Nc1nc2c(cnn2C2CCCC2)c(=O)[nH]1)c1ccc(Cl)cc1 (stereo unspecified)
- Selectivity ratio (Homo sapiens [5]): 46
- Selectivity ratio (Homo sapiens [6]): 31
